The source of these data is ChEMBL document CHEMBL1201862, “PubChem BioAssay data set” (2004).

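The compound was tested at five concentrations on cells cultured in 96-well plates, with a 48-hour exposure period. GI50: concentration for 50% inhibition of growth.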 Active and inactive are the calls of the source. Rule as the data show it: active = GI50 up to about 1.1 µM and inactive = higher.

Among the test systems are BT-549; KM-20L2; DMS-114; SNB-78; DMS-273; LXFL 529; M19-MEL; XF498.
Common to all, as to experiment: NCI anticancer screen, dose series, 48 h

With `CN(C)CCn1c(=O)c2ccc(NCCNCCO)c3c(=O)c4ccccc4n(c1=O)c23`, the GI50 in the assay on BT-549 was 1.21 µM (inactive).
For the compound `CC(=O)c1ccc2c(c1)oc(=O)n2CCN1CCCCC1`, the GI50 in the assay on BT-549 was > 100 µM (inactive).
Turning to `C=CCN(C)CN(C)c1nc(N(C)C)nc(N(C)C)n1`, the GI50 in the assay on KM-20L2 was > 100 µM (inactive); with DMS-114, 19.7 µM (inactive); in the assay with SNB-78, > 100 µM (inactive); in the assay with DMS-273 it was 22.3 µM (inactive); in the assay on LXFL 529, 26.1 µM (inactive); with M19-MEL, > 100 µM (inactive).
`Cn1c(=O)c2c(ncn2CCCCOc2ccc3c(c2)[n+]([O-])nc(N)[n+]3[O-])n(C)c1=O`: the GI50 with BT-549 was 12.9 µM (inactive).
With `COc1cccc(C2c3cc4c(cc3OC(N3CCCC3)C2C)OCO4)c1O` (configuration not stated), the GI50 in the assay with BT-549 is 3.79 µM (inactive).
The same measure, in the same setting: to `O=c1cc(/C=C/c2ccc(O)c(O)c2)oc(/C=C/c2ccc(O)c(O)c2)c1` belongs 4.8 µM (inactive); to `COc1cccc(NC(=O)CC(=O)NN)c1`, > 100 µM (inactive); to `Clc1cccc(/C=N/C23CC4CC(CC(C4)C2)C3)c1Cl`, > 10 µM (inactive).
Turning to `C=CCSC(C)=O`, the GI50 in the assay on BT-549 is > 100 µM (inactive).
For `O=C(O)c1ccc(/C=N/N=C2c3ccccc3-c3ccccc32)cc1`, in the assay on BT-549, the GI50 was > 100 µM (inactive).
Consider `COC(=O)CC(=O)OC1C[C@@H]2CCC3C(C)(C)CCC[C@]3(C)C23CC[C@@]1(C)C3` (some centres not stated), for which the GI50 in the assay with KM-20L2 was 20 µM (inactive); with DMS-114, 20.2 µM (inactive); in the assay with SNB-78 it was 19.6 µM (inactive); with XF498, 19 µM (inactive); with M19-MEL, 19.1 µM (inactive).
Consider `O=Cc1ccc2c(c1I)OCO2`, for which the GI50 in the assay with KM-20L2, in the assay on SNB-78, in the assay with DMS-273 and in the assay on M19-MEL was > 100 µM (inactive) throughout.
As to `COc1ccc(CN2CCC/C=C/CC(Cl)(Cl)C2=O)cc1`, the GI50 in the assay with KM-20L2 is 49.4 µM (inactive); in the assay on DMS-114, 24.7 µM (inactive); in the assay with DMS-273 it was 38.8 µM (inactive); in the assay with LXFL 529, 31.4 µM (inactive); with M19-MEL, 29.2 µM (inactive).
Regarding `Cc1cc(=O)oc2c(CN(CCCl)CCCl)c(O)ccc12`, the GI50 with BT-549 was 21.1 µM (inactive).
With `Cc1c2c(n(C)c1C)C(=O)C1C(C2=O)C2(C)c3ccccc3C1(C)c1ccccc12` (configuration not stated), the GI50 with BT-549 is > 100 µM (inactive).
Still for that read-out and setting: as for `C=C(C)[C@@H]1CC[C@]2(C(=O)O)CC[C@]3(C)[C@H](CC[C@@H]4[C@@]5(C)CC[C@H](O)C(C)(C)[C@@H]5CC[C@]43C)[C@@H]12` [BETULINIC ACID], the figure is 2.53 µM (inactive); as for `COc1ccc(/C=C/c2ccnc3ccccc23)c(OC)c1`, 7.18 µM (inactive); as for `CC(=O)NC1C(OCc2ccccc2)OC(CO)C(O)C1OC(C)C(=O)NC(C)C(=O)NC(CCC(=O)NCCCCNc1c2ccccc2nc2cccc([N+](=O)[O-])c12)C(N)=O` (configuration not stated), 0.196 µM (active).
The same measure, in the same setting: as for `O=Cc1ccc(-c2nccc3c2[nH]c2ccccc23)o1`, the figure is > 100 µM (inactive); as for `CCOC(=O)NC(Nc1ccc(C)cc1)(C(F)(F)F)C(F)(F)F`, > 100 µM (inactive).
Take `COC(=O)CCC(=O)N1Cc2cc(C)ccc2N(C(=O)CCC(=O)OC)Cc2cc(C)ccc21`: the GI50 in the assay on SNB-78, with DMS-273, with XF498 and in the assay with M19-MEL was > 100 µM (inactive) throughout.
As for `O=C1C2=C(SCCS2)C(=O)c2c(Sc3ccc(Cl)cc3)c(Sc3ccc(Cl)cc3)c(Sc3ccc(Cl)cc3)c(Sc3ccc(Cl)cc3)c21`, the GI50 in the assay on BT-549 was > 100 µM (inactive).
On to `CCOC1(OCC)N=C(N)C2(C#N)C3(C(=O)N(C(C)C)N=C3C)C12C#N` (configuration not stated), for which the GI50 in the assay with BT-549 is > 100 µM (inactive).
`COc1ccc(Nc2nc(N)c(C(=O)c3ccccc3)s2)cc1`: the GI50 in the assay with BT-549 was 1.33 µM (inactive).
Take `COc1ccc(C2C3=CONC3CC3CCCCC32)cc1` (configuration not stated): in the assay with BT-549, the GI50 is > 100 µM (inactive).
Still for that read-out and setting: as for `Clc1cc(OCc2nn3c(Cc4ccccc4)nnc3s2)c(Cl)cc1OCc1nn2c(Cc3ccccc3)nnc2s1`, the figure is 20.8 µM (inactive); as for `Brc1ccc2c(-c3nc(-c4c[nH]c5ccc(Br)cc45)cs3)c[nH]c2c1`, 13.3 µM (inactive); as for `Cc1c(C#N)c(N)[nH]c(=S)c1C#N`, > 100 µM (inactive).
As to `O=S(=O)(O)c1ccc(/N=N/c2ccc(/N=N/c3c(O)ccc4ccc(S(=O)(=O)O)cc34)cc2)cc1`, the GI50 in the assay on BT-549 was > 100 µM (inactive).
Still for that read-out and setting: as for `CCN1CN(c2ccccc2)C2(CCN(CCCSc3ccc(F)cc3)CC2)C1=O`, the figure is 8.61 µM (inactive); as for `C=CC(C)(C)n1cc(C2=C(O)C(=O)C(c3cn(C(C)(C)C=C)c4ccccc34)=C(OC(C)=O)C2=O)c2ccccc21`, 0.494 µM (active).
On the same count and under the same terms, as for `CN(C)c1ccc(/C=C2\C[C@H]3[C@@H]4CC=C5C[C@@H](O)CC[C@]5(C)[C@H]4CC[C@]3(C)[C@H]2O)cc1`, the figure is 21 µM (inactive).
Still for that read-out and setting: to `COC(=O)c1ccc(NCc2cc(O)c3ccccc3c2O)cc1` belongs 16.6 µM (inactive).
`N#Cc1nc(-c2ccccn2)oc1N`: the GI50 in the assay on BT-549 was > 100 µM (inactive).
For `O=C1/C(=N\O)C2CCC1C2` (configuration not stated), the GI50 in the assay on KM-20L2, with DMS-114, in the assay on SNB-78, in the assay with DMS-273, in the assay with LXFL 529 and in the assay on M19-MEL was > 100 µM (inactive) throughout.
For `Nc1ccc2c(c1)S(=O)(=O)c1cc(N)ccc1-2`, the GI50 in the assay on BT-549 is > 100 µM (inactive).
The same measure, in the same setting: as for `CN(C)CCNc1ccccn1`, the figure is > 100 µM (inactive).
On the same count and under the same terms, as for `N=C(N)N/N=C/c1c(-c2ccc(N)cc2)nc2sccn12`, the figure is 35.5 µM (inactive).
With `O=c1[nH]c(=O)n(C2OC(CO)C(N(O)Cc3ccc(F)cc3)C2O)cc1Br` (configuration not stated), the GI50 in the assay on KM-20L2, in the assay on DMS-114, in the assay with SNB-78, with DMS-273, with LXFL 529 and in the assay with M19-MEL was > 100 µM (inactive) throughout.
For `NC1CC2NC3CCCCC3NC2CC1N` (configuration not stated), in the assay with BT-549, the GI50 is > 100 µM (inactive).
Consider `O=C1C[C@@H](c2ccc(O)cc2)[C@@]2(O1)C(=O)O[C@H]([C@@H](O)CO)[C@@H]2O`, for which the GI50 in the assay on BT-549 was > 100 µM (inactive).
Consider `Cc1ccc(-c2ccc3c(c2)Sc2ccccc2O3)n1C`, for which the GI50 in the assay on BT-549 was 3.29 µM (inactive).
Same read-out and setting: to `CO[C@@H]1C=C[C@@]23c4cc5c(cc4C(O)N(CC2O)C3C1)OCO5` (some centres not stated) belongs 2.98 µM (inactive).
Take `CC(=O)OCC1OC(SC2=NC(=O)/C(=C/c3ccccc3)S2)C(OC(C)=O)C(OC(C)=O)C1OC(C)=O` (configuration not stated): the GI50 with BT-549 is 28.4 µM (inactive).
With `C=C(C)[C@H]1C=C[C@@H](OC(=O)c2cccnc2)[C@@]23CO[C@@](C)([C@H](OC(=O)c4cccnc4)[C@@]4(OC(C)=O)C[C@H](C)[C@H](OCCC)[C@@H]4[C@H]2OC(C)=O)[C@H]13`, in the assay on BT-549, the GI50 is > 15 µM (inactive).
Consider `CCOC(=O)CCC(NC(=O)c1ccc(Oc2nc3c(N)cc(C(F)(F)F)cc3nc2-c2ccccc2)cc1)C(=O)OCC` (configuration not stated), for which, in the assay with BT-549, the GI50 is > 50.6 µM (inactive).
`CN1CN(c2ccccc2)C2(CCN(CC(C)(c3ccc(F)cc3)C3OCCCO3)CC2)C1=O` (configuration not stated): in the assay on BT-549, the GI50 was 5.31 µM (inactive).
The same measure, in the same setting: to `CNC(=O)CCCNC(=O)CCCC(=O)N(C)C` belongs > 100 µM (inactive).
